Key:
Type in all cases: in vivo
[1] = Pharmacokinetics, mouse study: plasma AUCinf of metabolites after dosing Compound (4); conditions: female CD-1 mice, single intraperitoneal dose of 1 mg/mouse of Compound (4), metabolite AUCinf relative to Compound (4)
Description: (§1) The pharmacokinetics of Compounds (1)-(4) was determined in mice, rats, and monkeys.
Female CD-1 mice (n=9) received a single intraperitoneal dose of 1 mg/mouse of Compound (4). The dosing formulation was prepared prior to dose, with 2 mg/mL of Compound (4) in 4% DMSO and 96% PBS. Blood samples were collected from the mice at designated timepoints. Following collection, samples were centrifuged (2500 rpm for 10 minutes at 4° C.) and the resulting plasma was recovered and stored frozen (−60° C.).
(§2) Bioanalysis of the plasma samples was performed for Compounds (1)-(4). Mouse plasma samples were extracted by protein precipitation and analyzed by UPLC-MSMS using a Waters UPLC and API 5000® triple quadrupole mass spectrometer (AB Sciex, Toronto, Canada) with a Waters Acquity® UPLC BEH C18 column (50 mm×2.1 mm, 1.7 μm particle size). Acquisition and chromatographic peak integration were performed using Analyst® 1.7 Software. The standard curve regression and quantification of analytes in the samples was performed using the Analyst® Software.
(§3) Pharmacokinetic parameters were calculated based on the plasma concentration data for Compound (4) and the metabolites Compound (1)-(3) by non-compartmental methods using WinNonlin® Software, version 8.1 (Certara®, Inc). The area under the concentration time curve (AUCinf) was calculated for Compounds (1)-(4). The percent AUCinf (% AUCinf) for each metabolite was calculated as the ratio of the AUCinf for each respective metabolite divided by the AUCinf for Compound (4).

[2] = Pharmacokinetics, rat study: plasma AUCinf of metabolites after dosing Compound (4); conditions: male Sprague-Dawley rats, single intravenous bolus dose of 10 mg/kg Compound (4), metabolite AUCinf relative to Compound (4)
Description: as §1
Male Sprague-Dawley rats (n=3) received a single intravenous bolus dose of 10 mg/kg Compound (4). The dosing formulation was prepared by prior to dosing, with 5 mg/mL of Compound (4) in 14% sulphobutylether-β-cyclodextrin (SBECD) in deionized water (w/v). Blood samples were collected from each rat at designated timepoints. Following collection, the samples were centrifuged (2500 rpm for 10 minutes at approximately 4° C.) and the resulting plasma was recovered and stored frozen (−60° C.).
as §2, with “the” for “the plasma”, “Rat” for “Mouse”
as §3, with “calculated from” for “calculated based on”, “metabolites Compounds” for “metabolites Compound”, “AUCinf” for “AUCinf (% AUCinf)”, “for the metabolites” for “for each metabolite”

[3] = Pharmacokinetics, monkey study: plasma AUCinf of metabolites after dosing Compound (4); conditions: male cynomolgus monkeys, single 2 hour intravenous infusion of 5 mg/kg Compound (4), metabolite AUCinf relative to Compound (4)
Description: as §1
Male cynomolgus monkeys (n=3) received a single intravenous infusion over a period of 2 hours at a dose of 5 mg/kg Compound (4) (2.5 mL/kg/hour). The dosing formulation was prepared prior to dose, with 1 mg/mL of Compound (4) in 14% sulphobutylether-β-cyclodextrin (SBECD) in deionized water (w/v). Blood samples were collected from each monkey at designated timepoints. Following collection, the samples were centrifuged (2500 rpm for 10 minutes at 4° C.) and the resulting plasma was recovered and stored frozen (−60° C.).
Bioanalysis of samples was performed for Compounds (1)-(4). The monkey plasma samples were extracted by protein precipitation and analyzed by UPLC-MSMS using a Waters UPLC and API 5000® triple quadrupole mass spectrometer (AB Sciex, Toronto, Canada) with an ACE® Excel® 2 C18 column (50 mm×3.0 mm, 2 μm particle size) or a Waters Acquity® UPLC BEH C18 column (50 mm×2.1 mm, 1.7 μm). Acquisition and chromatographic peak integration were performed using Analyst® Software, version 1.6.3. The standard curve regression and quantification of analytes in the samples was performed using Watson LIMS® Software, version 7.4.1 (Thermo Fisher Scientific, Philadelphia, USA) or the Analyst® Software.
as §3, with “calculated from” for “calculated based on the”, “and its” for “and the”, “metabolites” for “metabolites Compound (1)-(3)”, “AUCinf” for “AUCinf (% AUCinf)”, “each of the metabolites” for “each metabolite”, “AUCinf of” for “AUCinf for”

| % AUCinf (100×AUCmetabolite/AUCCompound(4)) [1] | % AUCinf (100×AUCmetabolite/AUCCompound(4)) [2] | % AUCinf (100×AUCmetabolite/AUCCompound(4)) [3] | SMILES |
| --- | --- | --- | --- |
| 31% | 9% | 64% | CNc1cccc2c(S(=O)(=O)Nc3ccc(CN4CCOCC4)cc3)cccc12 [Compound (1), 5-(methylamino)-N-(4-(morpholinomethyl)phenyl)naphthalene-1-sulfonamide] |
| 10% | 48% | 132% | CNc1cccc2c(S(=O)(=O)Nc3ccc(CN4CCOCC4=O)cc3)cccc12 [Compound (2), 5-(methylamino)-N-(4-((3-oxomorpholino)methyl)phenyl)naphthalene-1-sulfonamide] |
| 9% | 11% | 7% | CN(C)c1cccc2c(S(=O)(=O)Nc3ccc(CN4CCOCC4=O)cc3)cccc12 [Compound (3), 5-(dimethylamino)-N-(4-((3-oxomorpholino)methyl)phenyl)naphthalene-1-sulfonamide] |

Reference: patent US12331024B2, “Substituted naphthyl P38alpha mitogen-activated protein kinase inhibitors” (GEN1E LIFESCIENCES INC., priority 2021, dated 2025)
